Where two headings read alike, the source gives them in different places.

One experiment has as its target T1, PI3K-alpha (Homo sapiens, UniProt P42336).
T1 construct: purchased Upstate Cell Signaling Solutions
Format: biochemical. Here is the method: The kinase activity of mTOR enzyme is assessed by incubating purified recombinant enzyme (mTOR(1360-2549)+GBL, prepared in-house) in a reaction mixture containing ATP, MnCl2, and a fluorescently labeled mTOR substrate, e.g., GFP-4E-BP1 (Invitrogen, product #PR8808A). The reaction is stopped by an addition of a Terbium-labeled phospho-specific antibody, e.g., Tb-labeled anti-p4E-BP1 T37/T46, (Invitrogen, product #PR8835A), EDTA, and TR-FRET buffer solution (Invitrogen, Product #PR3756B). Product formation is detected by way of time-resolved fluorescence resonance energy transfer (TR-FRET), which occurs when the phosphorylated substrate and labeled antibody are in close proximity due to phospho-specific binding. Enzymatic activity is measured as an increase in TR-FRET signal using a Perkin Elmer Envision plate reader. The assay is performed in a 384-well Proxiplate Plus (Perkin Elmer. Product #6008269) using the following protocol:
Compound activity is tested in 10 point dose curves starting at the highest final concentration of 10 uM. They are serially diluted in 100% DMSO prior to further dilution with assay buffer. The reaction mixture (8 uls) containing 0.25 nM mTOR+GBL enzyme, 400 nM GFP-4E-BP1, 8 uM ATP, 50 mM Hepes pH 7.5, 0.01% Tween 20, 10 mM MnCl2, 1 mM EGTA, 1 mM DTT, 1% DMSO (+/−compound) is incubated at room temperature for 30 minutes. 8 μL of solution containing 2 nM Tb-anti-p4E-BP1 antibody & 10 mM EDTA diluted TR-FRET buffer is then added and incubated for 30 minutes to stop the reaction. The plate is scanned with the Envision plate reader. Ki values are calculated in Assay Explorer using the Morrison ATP-competitive tight binding equation for Ki apparent determination.
Binding Assays: Initial polarization experiments were performed on an Analyst HT 96-384 (Molecular Devices Corp, Sunnyvale, Calif.). […] After an incubation time of 30 minutes at room temperature, the reactions were stopped by the addition of GRP-1 and PIP3-TAMRA probe (Echelon-Inc., Salt Lake City, Utah) 100 nM and 5 nM final concentrations respectively. […] This experiment also establishes the appropriate protein concentration to use in subsequent competition experiments with inhibitors.
After an incubation time of 30 minutes at room temperature, the reactions were stopped by the addition of GRP-1 and PIP3-TAMRA probe (Echelon-Inc., Salt Lake City, Utah) 100 nM and 5 nM final concentrations respectively.

Experiment [1] addresses T2, mTOR kinase (mTOR(1360-2549)+GBL) (Homo sapiens, UniProt P42345).
T2 construct: mTOR(1360-2549)+GBL, prepared in-house; made in house
The experiment can be described thus: In vitro mTOR kinase assay (TR-FRET). In kind it is biochemical. As to conditions: read-out: activity level (Ki) in the mTOR kinase assay. Here is the method:
The reaction is stopped by an addition of a Terbium-labeled phospho-specific antibody, e.g., Tb-labeled anti-p4E-BP1 T37/T46, (Invitrogen, product #PR8835A), EDTA, and TR-FRET buffer solution (Invitrogen, Product #PR3756B). Product formation is detected by way of time-resolved fluorescence resonance energy transfer (TR-FRET), which occurs when the phosphorylated substrate and labeled antibody are in close proximity due to phospho-specific binding. Enzymatic activity is measured as an increase in TR-FRET signal using a Perkin Elmer Envision plate reader.
Compound activity is tested in 10 point dose curves starting at the highest final concentration of 10 uM. They are serially diluted in 100% DMSO prior to further dilution with assay buffer. […] 8 μL of solution containing 2 nM Tb-anti-p4E-BP1 antibody & 10 mM EDTA diluted TR-FRET buffer is then added and incubated for 30 minutes to stop the reaction. The plate is scanned with the Envision plate reader. Ki values are calculated in Assay Explorer using the Morrison ATP-competitive tight binding equation for Ki apparent determination.
(In general: Time-resolved FRET reads energy transfer from a long-lived donor to a nearby acceptor.)

The next experiment deals with PC3 cells. Briefly: In vitro cell proliferation assay. Format: cell-based. As to conditions: Homo sapiens. Here is the method: Efficacy of Formula I compounds were measured by a cell proliferation assay employing the following protocol: 1. An aliquot of 20 μl of cell culture containing about 10^3 cells (PC3 or MDAMB361.1) in medium was deposited in each well of a 384-well, opaque-walled plate. 2. Control wells were prepared containing medium and without cells; Cells were allowed to settle overnight. 3. The compound was added to the experimental wells and incubated for 3 days. 4. The plates were equilibrated to room temperature for approximately 30 minutes. 5. A volume of CellTiter-Glo Reagent equal to the volume of cell culture medium present in each well was added. 6. The contents were mixed for 2 minutes on an orbital shaker to induce cell lysis. 7. The plate was incubated at room temperature for 20 minutes to stabilize the luminescence signal. […] Luminescence was recorded and reported in graphs as RLU=relative luminescence units. Alternatively, cells were seeded at optimal density in a 96 well plate and incubated for 4 days in the presence of test compound. […] IC50 values were calculated using a sigmoidal dose response curve fit.

Experiment [2] deals with AKT serine-473 phosphorylation in EGF-stimulated PC-3 cells. The experiment can be described thus: In vitro phospho-AKT serine 473 cellular assay. Format: cell-based. As to conditions: Homo sapiens. Here is the method: The PC-3 cell line is maintained in RPMI1640 media supplemented with 10% FBS, 2 mM Glutamine, and 10 mM HEPES pH 7.4 at 37° C. in a 5% CO2 humidified incubator.
Cells are seeded in 384-well plates at 7,000 cells/well in […] growth media. After 24 hours, growth media is removed and replaced with RPMI1640 containing no FBS. Cells are treated with 10 concentrations of test compounds or DMSO alone for controls (final DMSO concentration 0.5%) and incubated at 37° C. for 30 minutes. Cells are then stimulated for 10 minutes with 100 ng/ml EGF (final concentration). One column of controls is not stimulated with EGF to observe the signal ratio between stimulated and non-stimulated cells. After 10 minutes, compounds and stimulation media are removed and replaced with 25 μl lysis buffer containing protease inhibitors and phosphatase inhibitors. This buffer contains detergent to bring about cellular disruption. […] Following the transfer of lysate to the MSD plate, AKT in the lysate is captured on the coated antibody by incubation on a shaker at 4° C. for 16 hours. Following the capture step the plate is washed and then incubated for two hours with an antibody to S473 phosphorylated AKT which is conjugated with a Sulfo-Tag. This tag gives a signal when in proximity to the electrode on the base of the MSD plate. Binding the tagged antibody to the captured protein allow detection on a MSD reader.
EC50 values are calculated using MDL Assay Explorer 3.0.1.8 fitting a sigmoidal curve with a variable slope.

Where [3] appears, read: PC-3, with PC3 cells, read-out: IC50 value, cell proliferation.
[4] abbreviates: recombinant mTOR+GBL, 8 uM ATP, Ki apparent.
[5] abbreviates: PC-3 cells stimulated with EGF, read-out: EC50 activity level, inhibition of S473 AKT phosphorylation.
The mark [6] stands for this setting: PC-3, read-out: IC50 value, cell proliferation.

T2 sequence (P42345 1360-2549): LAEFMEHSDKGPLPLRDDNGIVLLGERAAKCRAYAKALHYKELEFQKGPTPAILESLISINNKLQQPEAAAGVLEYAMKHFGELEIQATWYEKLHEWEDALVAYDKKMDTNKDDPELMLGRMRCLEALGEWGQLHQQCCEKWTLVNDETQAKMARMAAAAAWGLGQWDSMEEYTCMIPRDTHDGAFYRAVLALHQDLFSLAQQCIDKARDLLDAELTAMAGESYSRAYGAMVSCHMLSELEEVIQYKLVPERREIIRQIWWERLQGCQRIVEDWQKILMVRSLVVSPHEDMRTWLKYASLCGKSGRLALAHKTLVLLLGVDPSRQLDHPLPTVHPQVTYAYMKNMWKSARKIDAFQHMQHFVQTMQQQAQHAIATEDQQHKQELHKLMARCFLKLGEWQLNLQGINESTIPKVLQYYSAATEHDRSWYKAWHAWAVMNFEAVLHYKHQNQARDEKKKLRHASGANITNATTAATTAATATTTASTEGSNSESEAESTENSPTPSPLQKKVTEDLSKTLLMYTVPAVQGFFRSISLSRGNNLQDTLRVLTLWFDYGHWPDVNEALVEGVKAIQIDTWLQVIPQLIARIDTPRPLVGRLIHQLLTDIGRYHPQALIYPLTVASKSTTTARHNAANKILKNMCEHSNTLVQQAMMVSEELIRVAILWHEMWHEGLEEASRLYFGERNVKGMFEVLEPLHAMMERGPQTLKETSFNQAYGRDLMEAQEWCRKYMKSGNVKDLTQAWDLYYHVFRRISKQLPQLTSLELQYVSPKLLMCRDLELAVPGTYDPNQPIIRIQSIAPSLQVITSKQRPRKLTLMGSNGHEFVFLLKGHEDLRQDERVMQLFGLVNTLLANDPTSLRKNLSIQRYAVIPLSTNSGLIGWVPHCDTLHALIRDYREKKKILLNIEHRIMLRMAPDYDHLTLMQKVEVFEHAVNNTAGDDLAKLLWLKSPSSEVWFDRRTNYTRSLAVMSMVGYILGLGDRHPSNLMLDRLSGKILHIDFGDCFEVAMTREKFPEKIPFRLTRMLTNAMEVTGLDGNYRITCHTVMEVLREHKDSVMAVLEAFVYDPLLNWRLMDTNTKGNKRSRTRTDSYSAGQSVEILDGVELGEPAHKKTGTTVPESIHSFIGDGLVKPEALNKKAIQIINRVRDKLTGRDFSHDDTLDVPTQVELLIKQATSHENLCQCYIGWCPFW
T2 sequence (Q9BVC4 whole entry partner): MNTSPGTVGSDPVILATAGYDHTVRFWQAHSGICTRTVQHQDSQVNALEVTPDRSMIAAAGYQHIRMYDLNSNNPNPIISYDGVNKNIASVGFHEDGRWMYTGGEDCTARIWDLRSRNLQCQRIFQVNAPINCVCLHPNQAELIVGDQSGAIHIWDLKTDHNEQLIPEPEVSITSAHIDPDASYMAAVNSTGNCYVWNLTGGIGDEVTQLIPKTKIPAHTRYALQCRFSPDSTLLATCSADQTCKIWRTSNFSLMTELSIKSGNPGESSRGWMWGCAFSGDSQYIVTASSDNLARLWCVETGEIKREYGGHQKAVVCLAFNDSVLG
T1 sequence (P42336 whole entry, species assumed): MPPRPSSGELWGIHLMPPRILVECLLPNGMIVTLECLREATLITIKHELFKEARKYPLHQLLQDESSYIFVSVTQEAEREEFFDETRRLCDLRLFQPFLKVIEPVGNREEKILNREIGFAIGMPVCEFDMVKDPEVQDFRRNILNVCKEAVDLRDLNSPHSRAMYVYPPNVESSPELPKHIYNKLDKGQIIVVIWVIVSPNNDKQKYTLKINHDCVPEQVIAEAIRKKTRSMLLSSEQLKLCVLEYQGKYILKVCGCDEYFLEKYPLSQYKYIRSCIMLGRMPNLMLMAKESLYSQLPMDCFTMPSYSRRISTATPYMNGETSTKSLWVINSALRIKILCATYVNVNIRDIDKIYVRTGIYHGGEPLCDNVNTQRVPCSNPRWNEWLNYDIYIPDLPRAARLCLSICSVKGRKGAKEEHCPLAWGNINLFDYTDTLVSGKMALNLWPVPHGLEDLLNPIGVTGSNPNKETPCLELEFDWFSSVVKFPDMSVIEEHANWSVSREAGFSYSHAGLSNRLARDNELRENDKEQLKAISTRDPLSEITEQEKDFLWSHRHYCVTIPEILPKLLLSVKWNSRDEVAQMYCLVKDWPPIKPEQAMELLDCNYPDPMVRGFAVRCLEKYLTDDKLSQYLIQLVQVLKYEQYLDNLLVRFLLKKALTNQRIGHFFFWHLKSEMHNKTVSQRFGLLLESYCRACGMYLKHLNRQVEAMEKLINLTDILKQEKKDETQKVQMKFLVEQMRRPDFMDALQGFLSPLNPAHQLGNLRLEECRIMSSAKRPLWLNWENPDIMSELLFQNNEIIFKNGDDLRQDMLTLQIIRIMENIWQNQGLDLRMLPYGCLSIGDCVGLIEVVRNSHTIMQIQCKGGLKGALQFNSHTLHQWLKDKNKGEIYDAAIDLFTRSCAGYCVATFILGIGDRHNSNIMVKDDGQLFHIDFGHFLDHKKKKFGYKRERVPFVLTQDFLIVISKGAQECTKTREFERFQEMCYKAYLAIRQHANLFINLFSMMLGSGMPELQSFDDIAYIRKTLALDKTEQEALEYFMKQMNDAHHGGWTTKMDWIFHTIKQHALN
T1 sequence (P27986 whole entry partner, species assumed): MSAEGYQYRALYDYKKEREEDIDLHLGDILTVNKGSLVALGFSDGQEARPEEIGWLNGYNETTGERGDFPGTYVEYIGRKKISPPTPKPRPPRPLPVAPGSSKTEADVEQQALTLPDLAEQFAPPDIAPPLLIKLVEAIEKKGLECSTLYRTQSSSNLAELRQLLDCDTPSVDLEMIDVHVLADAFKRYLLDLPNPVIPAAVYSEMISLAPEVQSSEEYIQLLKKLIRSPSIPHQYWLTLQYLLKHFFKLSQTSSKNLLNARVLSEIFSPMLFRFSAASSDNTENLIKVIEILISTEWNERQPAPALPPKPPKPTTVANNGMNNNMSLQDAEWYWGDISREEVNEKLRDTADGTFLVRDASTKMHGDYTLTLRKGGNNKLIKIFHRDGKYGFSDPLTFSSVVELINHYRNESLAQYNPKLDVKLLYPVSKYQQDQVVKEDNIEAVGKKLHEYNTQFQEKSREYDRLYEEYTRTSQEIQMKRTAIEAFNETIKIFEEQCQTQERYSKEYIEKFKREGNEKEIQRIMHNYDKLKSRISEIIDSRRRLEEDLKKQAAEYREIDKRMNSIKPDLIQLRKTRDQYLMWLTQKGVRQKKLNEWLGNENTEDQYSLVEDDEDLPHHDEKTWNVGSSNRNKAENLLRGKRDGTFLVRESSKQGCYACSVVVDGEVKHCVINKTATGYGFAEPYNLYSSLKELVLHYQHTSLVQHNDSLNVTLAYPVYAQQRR

As to `CCNC(=O)Nc1ccc(-c2nc(N3CCOC[C@@H]3C)c3ncn(CC)c3n2)cc1` [(S)-1-ethyl-3-(4-(9-ethyl-6-(3-methylmorpholino)-9H-purin-2-yl)phenyl)urea, reference compound], on PI3K-alpha, the “selectivity for mTOR kinase over related PI3 kinase (PI3K-alpha)” value (from here on “selectivity for mTOR kinase”) is 45 ×.

In the case of `CCNC(=O)Nc1ccc(-c2nc(N3CCOC[C@@H]3C)c3ncn(C)c3n2)cc1` [(S)-1-ethyl-3-(4-(9-methyl-6-(3-methylmorpholino)-9H-purin-2-yl)phenyl)urea, reference compound], at PI3K-alpha, the “selectivity for mTOR kinase” value worked out at 29 ×.

On to `CCNC(=O)Nc1ccc(-c2nc(N3CCOCC3)c3c(ncn3C)n2)cc1` [Compound 101, 1-ethyl-3-(4-(7-methyl-6-morpholino-7H-purin-2-yl)phenyl)urea], for which the Ki in experiment [1] was determined as 143 nM.

As to `CCNC(=O)Nc1ccc(-c2nc(N3CCOC[C@@H]3C)c3c(ncn3C)n2)cc1` [Compound 102, (S)-1-ethyl-3-(4-(7-methyl-6-(3-methylmorpholino)-7H-purin-2-yl)phenyl)urea], the IC50 in the experiment with PC3 cells (setting [3]) came out at 294 nM.

For `CCNC(=O)Nc1ccc(-c2nc(N3CCOC[C@H]3C)c3c(ncn3C)n2)cc1` [Compound 103, (R)-1-ethyl-3-(4-(7-methyl-6-(3-methylmorpholino)-7H-purin-2-yl)phenyl)urea], the IC50 in the experiment on PC3 cells (setting [3]) is 10000 nM.

Regarding `CCNC(=O)Nc1ccc(-c2nc(N3CCOC[C@@H]3CC)c3c(ncn3C)n2)cc1` [Compound 104, (S)-1-ethyl-3-(4-(6-(3-ethylmorpholino)-7-methyl-7H-purin-2-yl)phenyl)urea], the EC50 in experiment [2] (PC-3, read-out: EC50 activity level, inhibition of S473 AKT phosphorylation) stood at 69 nM. Besides, the Ki in experiment [1] (setting [4]) amounted to 4 nM. In addition, the IC50 in the experiment with PC3 cells (setting [3]) is 737 nM.

`CCNC(=O)Nc1ccc(-c2nc(N3CCCOCC3)c3c(ncn3C)n2)cc1` [Compound 105, 1-ethyl-3-(4-(7-methyl-6-(1,4-oxazepan-4-yl)-7H-purin-2-yl)phenyl)urea]: in experiment [1] (setting [4]), the Ki was 121 nM.

For `CCNC(=O)Nc1ccc(-c2nc(N3CCOC[C@@H]3C)c3c(ncn3CC)n2)cc1` [Compound 106, (S)-1-ethyl-3-(4-(7-ethyl-6-(3-methylmorpholino)-7H-purin-2-yl)phenyl)urea], the EC50 in experiment [2] (setting [5]) was 511 nM. For the same compound, the Ki in experiment [1] (setting [4]) was 40 nM. Also, the IC50 in the experiment with PC3 cells (setting [6]) was found to be 4200 nM. In addition, the “selectivity for mTOR kinase” value at PI3K-alpha amounted to 250 ×.

In the case of `CCCCc1nc2nc(-c3ccc(NC(=O)NCC)cc3)nc(N3CCOC[C@@H]3C)c2n1C` [Compound 107, (S)-1-(4-(8-butyl-7-methyl-6-(3-methylmorpholino)-7H-purin-2-yl)phenyl)-3-ethylurea], the Ki in experiment [1] came out at 53 nM. Also, the IC50 in the experiment on PC3 cells (setting [3]) turned out to be 2400 nM.

In the case of `CCNC(=O)Nc1ccc(-c2nc(N3CCOC[C@@H]3C)c3c(n2)nc(C(C)(C)O)n3C)cc1` [Compound 108, (S)-1-ethyl-3-(4-(8-(2-hydroxypropan-2-yl)-7-methyl-6-(3-methylmorpholino)-7H-purin-2-yl)phenyl)urea], in experiment [2] (setting [5]), the EC50 was found to be 3500 nM. In addition, the Ki in experiment [1] (setting [4]) stood at 30 nM. Further, the IC50 in the experiment with PC3 cells (setting [6]) turned out to be 8000 nM.

As for `CCNC(=O)Nc1ccc(-c2nc(N3C[C@@H]4C[C@H]3CO4)c3c(cnn3C)n2)cc1` [Compound 109, 1-(4-(7-((1S,4S)-2-oxa-5-azabicyclo[2.2.1]heptan-5-yl)-1-methyl-1H-pyrazolo[4,3-d]pyrimidin-5-yl)phenyl)-3-ethylurea], the Ki in experiment [1] is 8 nM. The IC50 in the experiment on PC3 cells (setting [6]) amounted to 399 nM.

Take `CCNC(=O)Nc1ccc(-c2nc(N3CCOC[C@@H]3C)c3c(cnn3C)n2)cc1` [Compound 110, (S)-1-ethyl-3-(4-(1-methyl-7-(3-methylmorpholino)-1H-pyrazolo[4,3-d]pyrimidin-5-yl)phenyl)urea]: the Ki in experiment [1] is 1 nM. Also, in the experiment on PC3 cells (setting [6]), the IC50 is 131 nM. Further, the “selectivity for mTOR kinase” value on PI3K-alpha was found to be 1250 ×.

`CCNC(=O)Nc1ccc(-c2nc(N3CCOC[C@@H]3CC)c3c(cnn3C)n2)cc1` [Compound 111, (S)-1-ethyl-3-(4-(7-(3-ethylmorpholino)-1-methyl-1H-pyrazolo[4,3-d]pyrimidin-5-yl)phenyl)urea]: the Ki in experiment [1] was 28 nM. In the experiment with PC3 cells (setting [3]), the IC50 amounted to 2900 nM.

For the compound `CCNC(=O)Nc1ccc(-c2nc(N3CCOC[C@@H]3CC)c3c(n2)c(C)nn3C)cc1` [Compound 112, (S)-1-ethyl-3-(4-(7-(3-ethylmorpholino)-1,3-dimethyl-1H-pyrazolo[4,3-d]pyrimidin-5-yl)phenyl)urea], the Ki in experiment [1] (setting [4]) is 2 nM. The IC50 in the experiment with PC3 cells (setting [3]) stood at 86 nM.

As for `C[C@H]1COCCN1c1nc(-c2ccc(NC(=O)NC3COC3)cc2)nc2cnn(C)c12` [Compound 113, (S)-1-(4-(1-methyl-7-(3-methylmorpholino)-1H-pyrazolo[4,3-d]pyrimidin-5-yl)phenyl)-3-(oxetan-3-yl)urea], the Ki in experiment [1] was 39 nM. The IC50 with PC3 cells (setting [3]) amounted to 5900 nM.

In the case of `C[C@H]1COCCN1c1nc(-c2ccc(NC(=O)NCCS(C)(=O)=O)cc2)nc2cnn(C)c12` [Compound 114, (S)-1-(4-(1-methyl-7-(3-methylmorpholino)-1H-pyrazolo[4,3-d]pyrimidin-5-yl)phenyl)-3-(2-(methylsulfonyl)ethyl)urea], the Ki in experiment [1] turned out to be 145 nM.

The EC50 is the concentration giving half of the maximal effect.
